Measured values: PubChem BioAssay (NCI)
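These data come from cells grown in 96-well plates and exposed to compound for 48 hours at five concentrations. GI50: concentration for 50% inhibition of growth. Definition used: TGI = concentration required for complete inhibition of growth.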

Tests used:
Test in all cases: NCI-60 cell line screen, 48 h
OVCAR-3 ovarian = tested on: OVCAR-3 ovarian
SN12C renal = tested on: SN12C renal
K-562 leukemia = tested on: K-562 leukemia
MALME-3M melanoma = tested on: MALME-3M melanoma
HOP-92 NSCLC = tested on: HOP-92 NSCLC
HS 578T breast = tested on: HS 578T breast
RXF 393 renal = tested on: RXF 393 renal
UACC-62 melanoma = tested on: UACC-62 melanoma
HCT-15 colon = tested on: HCT-15 colon
HT29 colon = tested on: HT29 colon

## N#Cc1cccc(/C=C(/C(=O)c2ccccc2)c2ccccc2)c1
OVCAR-3 ovarian
  GI50: 3.63 µM
  TGI: 11.8 µM
SN12C renal
  GI50: 3.85 µM
  TGI: 25.9 µM
K-562 leukemia
  GI50: 3.52 µM
  TGI: 23.6 µM
MALME-3M melanoma
  GI50: 9.61 µM
  TGI: 27.8 µM
HOP-92 NSCLC
  GI50: 2.6 µM
HS 578T breast
  GI50: 2.9 µM
  TGI: 33.6 µM
RXF 393 renal
  GI50: 3.72 µM
  TGI: 10.8 µM
UACC-62 melanoma
  GI50: 4.1 µM
  TGI: 24.6 µM
HCT-15 colon
  GI50: 3.4 µM
  TGI: 22.8 µM
HT29 colon
  GI50: 4.23 µM
  TGI: 15 µM

## O=C1OC(C2=CC(=O)c3ccccc3C2=O)C(Cl)=C1Cl (stereo not drawn)
OVCAR-3 ovarian
  TGI: > 100 µM
SN12C renal
  TGI: 59 µM
K-562 leukemia
  TGI: 83.3 µM
MALME-3M melanoma
  TGI: 57.9 µM
HOP-92 NSCLC
  TGI: > 100 µM
HS 578T breast
  TGI: > 100 µM
RXF 393 renal
  TGI: 52.5 µM
UACC-62 melanoma
  TGI: 39.5 µM
HCT-15 colon
  TGI: 41 µM
HT29 colon
  TGI: > 100 µM

## CO/N=C(/COc1c(-c2ccccc2)oc2ccccc2c1=O)c1ccc(OC)cc1
OVCAR-3 ovarian
  GI50: > 100 µM
  TGI: > 100 µM
SN12C renal
  GI50: 76.7 µM
  TGI: > 100 µM
K-562 leukemia
  GI50: 42.5 µM
  TGI: > 100 µM
MALME-3M melanoma
  GI50: > 100 µM
  TGI: > 100 µM
HS 578T breast
  GI50: > 100 µM
  TGI: > 100 µM
RXF 393 renal
  GI50: > 100 µM
  TGI: > 100 µM
UACC-62 melanoma
  GI50: 53.5 µM
  TGI: > 100 µM
HCT-15 colon
  GI50: > 100 µM
  TGI: > 100 µM
HT29 colon
  GI50: 51.6 µM
  TGI: > 100 µM

## CNNC(=N\S(=O)(=O)c1cc(C(=O)Nc2ccc(Cl)cc2)c(Cl)cc1SCc1ccccc1)/N=C/c1ccc([N+](=O)[O-])s1
OVCAR-3 ovarian
  GI50: > 100 µM
  TGI: > 100 µM
SN12C renal
  GI50: 6.6 µM
  TGI: > 100 µM
K-562 leukemia
  GI50: 15.9 µM
  TGI: > 100 µM
MALME-3M melanoma
  GI50: > 100 µM
  TGI: > 100 µM
HOP-92 NSCLC
  GI50: 4.54 µM
  TGI: 62.2 µM
HS 578T breast
  GI50: 38.2 µM
  TGI: > 100 µM
RXF 393 renal
  GI50: > 100 µM
  TGI: > 100 µM
UACC-62 melanoma
  GI50: > 100 µM
  TGI: > 100 µM
HCT-15 colon
  GI50: 22.5 µM
  TGI: > 100 µM
HT29 colon
  GI50: > 28.2 µM
  TGI: > 100 µM

## COc1cccc(-n2ncc3c(N/N=C/c4ccc(S(C)(=O)=O)cc4)ncnc32)c1
OVCAR-3 ovarian
  GI50: 7.41 µM
  TGI: > 23 µM
SN12C renal
  GI50: 9.88 µM
  TGI: > 25 µM
K-562 leukemia
  GI50: > 6.65 µM
  TGI: > 25 µM
MALME-3M melanoma
  GI50: 4.21 µM
  TGI: > 25 µM
HOP-92 NSCLC
  GI50: 7.36 µM
  TGI: 18.7 µM
HS 578T breast
  GI50: 0.608 µM
  TGI: 7.34 µM
RXF 393 renal
  GI50: 2.2 µM
  TGI: 8.76 µM
UACC-62 melanoma
  GI50: 3.47 µM
  TGI: > 16.9 µM
HCT-15 colon
  GI50: > 25 µM
  TGI: > 25 µM
HT29 colon
  GI50: 3.49 µM
  TGI: 10.5 µM

## N#CSCc1c(Cl)cccc1Cl
OVCAR-3 ovarian
  GI50: 2.39 µM
  TGI: 5.18 µM
SN12C renal
  GI50: 4.5 µM
  TGI: > 100 µM
K-562 leukemia
  GI50: 0.359 µM
  TGI: 16.3 µM
MALME-3M melanoma
  GI50: 8.71 µM
  TGI: > 100 µM
HOP-92 NSCLC
  GI50: 1.18 µM
  TGI: > 30 µM
HS 578T breast
  GI50: 3.04 µM
  TGI: 8.26 µM
RXF 393 renal
  GI50: 2.54 µM
  TGI: 7.24 µM
UACC-62 melanoma
  GI50: 5.18 µM
  TGI: > 67.4 µM
HCT-15 colon
  GI50: 2.96 µM
  TGI: > 100 µM
HT29 colon
  GI50: 3.75 µM
  TGI: > 100 µM

## CO[C@H]1C[C@@H]2CC[C@@H](C)[C@@](O)(O2)C(=O)C(=O)N2CCCC[C@H]2C(=O)O[C@H]([C@H](C)C[C@@H]2CC[C@@H](OP(C)(C)=O)[C@H](OC)C2)CC(=O)[C@H](C)/C=C(\C)[C@@H](O)[C@@H](OC)C(=O)[C@H](C)C[C@H](C)/C=C/C=C/C=C/1C
OVCAR-3 ovarian
  GI50: 11.1 µM
  TGI: 23.3 µM
SN12C renal
  GI50: 11 µM
  TGI: 25.8 µM
K-562 leukemia
  GI50: 11.7 µM
  TGI: > 69.4 µM
MALME-3M melanoma
  GI50: < 0.01 µM
  TGI: 16.8 µM
HOP-92 NSCLC
  GI50: 0.106 µM
  TGI: 17.2 µM
HS 578T breast
  TGI: 37.1 µM
RXF 393 renal
  GI50: < 0.01 µM
  TGI: 16.4 µM
UACC-62 melanoma
  GI50: 0.386 µM
  TGI: 20.7 µM
HCT-15 colon
  GI50: 1.21 µM
  TGI: 29.5 µM
HT29 colon
  GI50: 8.07 µM
  TGI: 24 µM

## CCN(C(=O)CCl)C(C)(C)C(SSSC(c1ccc(Cl)cc1)C(C)(C)N(CC)C(=O)CCl)c1ccc(Cl)cc1 (stereo not drawn)
OVCAR-3 ovarian
  GI50: 8.46 µM
  TGI: 21.6 µM
SN12C renal
  GI50: 12.5 µM
  TGI: 26.4 µM
K-562 leukemia
  GI50: 1.71 µM
  TGI: 3.59 µM
MALME-3M melanoma
  GI50: 2.21 µM
  TGI: 3.97 µM
HOP-92 NSCLC
  GI50: 1.29 µM
  TGI: 8.6 µM
HS 578T breast
  GI50: 3.36 µM
  TGI: 18.8 µM
RXF 393 renal
  GI50: 2.95 µM
  TGI: 13.8 µM
HCT-15 colon
  GI50: 2.84 µM
  TGI: 12.8 µM
HT29 colon
  GI50: 2.65 µM
  TGI: 8.23 µM

## CC1=CC2=C(C(N)=O)C(=O)OC2(C)C(c2ccccc2)C1 (stereo not drawn)
OVCAR-3 ovarian
  TGI: > 100 µM
SN12C renal
  TGI: > 100 µM
K-562 leukemia
  TGI: > 100 µM
MALME-3M melanoma
  TGI: > 100 µM
HOP-92 NSCLC
  TGI: > 100 µM
HS 578T breast
  TGI: > 100 µM
UACC-62 melanoma
  TGI: > 100 µM
HCT-15 colon
  TGI: > 100 µM
HT29 colon
  TGI: > 100 µM

## C/C1=C\C/C=C(\C)[C@H]2CC(CC/C(C)=C/CC1)[C@@](C)(CO)O2
OVCAR-3 ovarian
  GI50: > 100 µM
  TGI: > 100 µM
SN12C renal
  GI50: 16.3 µM
  TGI: > 100 µM
K-562 leukemia
  GI50: 28.4 µM
  TGI: > 100 µM
HOP-92 NSCLC
  GI50: 36.3 µM
  TGI: > 100 µM
HS 578T breast
  GI50: > 100 µM
  TGI: > 100 µM
RXF 393 renal
  GI50: > 100 µM
  TGI: > 100 µM
UACC-62 melanoma
  GI50: 69.2 µM
  TGI: > 100 µM
HCT-15 colon
  GI50: > 100 µM
  TGI: > 100 µM
HT29 colon
  GI50: > 100 µM
  TGI: > 100 µM

## CC[C@H](C)[C@H](NC(=O)Nc1ccccc1)C(=O)N(C)[C@H](C[C@@H](OC(C)=O)c1nc(C(=O)N[C@@H](Cc2ccccc2)C[C@H](C)C(=O)OC)cs1)C(C)C
OVCAR-3 ovarian
  GI50: 2.32 µM
  TGI: 5.96 µM
SN12C renal
  GI50: 8.31 µM
  TGI: > 100 µM
MALME-3M melanoma
  GI50: 98.2 µM
  TGI: > 100 µM
HOP-92 NSCLC
  GI50: 1.34 µM
  TGI: 62.9 µM
HS 578T breast
  GI50: 2.47 µM
  TGI: 8.73 µM
RXF 393 renal
  GI50: 1.95 µM
  TGI: 7.25 µM
UACC-62 melanoma
  GI50: 1.27 µM
  TGI: > 100 µM
HCT-15 colon
  GI50: 3.58 µM
  TGI: > 100 µM
HT29 colon
  GI50: 3.33 µM
  TGI: > 100 µM

## Cc1cccc(NC(=O)CCl)c1
OVCAR-3 ovarian
  TGI: > 10 µM
SN12C renal
  TGI: > 10 µM
K-562 leukemia
  TGI: > 10 µM
MALME-3M melanoma
  TGI: > 10 µM
HS 578T breast
  TGI: > 10 µM
RXF 393 renal
  TGI: > 10 µM
UACC-62 melanoma
  TGI: > 10 µM
HCT-15 colon
  TGI: > 10 µM
HT29 colon
  TGI: > 10 µM

## Cc1ccc2c(Nc3cccc(Cl)c3F)ncc(NC(=O)c3csc4c(N)ncnc34)c2c1
OVCAR-3 ovarian
  GI50: > 100 µM
  TGI: > 100 µM
SN12C renal
  GI50: > 100 µM
  TGI: > 100 µM
K-562 leukemia
  GI50: 1.5 µM
  TGI: > 100 µM
HOP-92 NSCLC
  GI50: 0.136 µM
  TGI: 1.72 µM
HS 578T breast
  GI50: > 100 µM
  TGI: > 100 µM
RXF 393 renal
  GI50: > 100 µM
  TGI: > 100 µM
HCT-15 colon
  GI50: > 100 µM
  TGI: > 100 µM
HT29 colon
  GI50: 0.0779 µM
  TGI: > 100 µM

## O=Cc1ccc(Oc2c3ccccc3nc3occc23)cc1
OVCAR-3 ovarian
  GI50: 2.59 µM
  TGI: 11.3 µM
SN12C renal
  GI50: 7.73 µM
  TGI: 24.2 µM
K-562 leukemia
  GI50: 22.6 µM
  TGI: > 100 µM
HS 578T breast
  GI50: 13.4 µM
  TGI: 51.6 µM
RXF 393 renal
  GI50: 2.32 µM
  TGI: 9.17 µM
UACC-62 melanoma
  GI50: 13.1 µM
  TGI: 30.4 µM
HT29 colon
  GI50: 23.1 µM
  TGI: 61.9 µM
